Results published in article PMC11995724, “Antibiotic target discovery by integrated phenotypic and activity-based profiling of electrophilic fragments” (Cell chemical biology, 2025).

Assay: in vitro
Conditions: human, hek293t cells

**Q.** Which viability at 48 h, 25 µM does the source give for COc1cc(CN(C(=O)CCl)C2CC2)ccc1O [7-H18, 2-chloro-N-cyclopropyl-N-[(4-hydroxy-3-methoxyphenyl)methyl]acetamide] here?
**A.** 0.647%

**Q.** With C=CC(=O)NC1(c2ncon2)CCOCC1 [3-K22, N-[4-(1,2,4-oxadiazol-3-yl)oxan-4-yl]prop-2-enamide] as the compound, how does the viability at 48 h, 25 µM read?
**A.** 66.9%

**Q.** Which viability at 48 h, 25 µM does the source give for CCOc1ccc(NC(=O)C(C#N)=Cc2ccc(F)cc2)cc1 [8-N07, 2-cyano-N-(4-ethoxyphenyl)-3-(4-fluorophenyl)prop-2-enamide] here?
**A.** 102%

**Q.** Which viability at 48 h, 25 µM does the source give for Cc1ccc(NC(=O)CCl)c([N+](=O)[O-])c1 [4-A07, 2-chloro-N-(4-methyl-2-nitrophenyl)acetamide] here?
**A.** 2.99%

**Q.** With C=CC(=O)Nc1ccc(N2CCCCC2)c(F)c1 [2-I22, N-[3-fluoro-4-(piperidin-1-yl)phenyl]prop-2-enamide] as the compound, how does the viability at 48 h, 25 µM read?
**A.** 92.5%

**Q.** With CCN(CC)c1ccc(NC(=O)CCl)cc1 [6-N10, 2-chloro-N-[4-(diethylamino)phenyl]acetamide] as the compound, how does the viability at 48 h, 25 µM read?
**A.** 2.56%

**Q.** With CC(NC(=O)C(C#N)=Cc1ccc2c(c1)OCCO2)c1ccccc1 (stereo not shown) [8-M15, 2-cyano-3-(2,3-dihydro-1,4-benzodioxin-6-yl)-N-(1-phenylethyl)prop-2-enamide] as the compound, how does the viability at 48 h, 25 µM read?
**A.** 64.3%

**Q.** With C=CC(=O)Nc1nc(Cc2ccccc2)c(C)s1 [1-B16, N-(4-benzyl-5-methyl-1,3-thiazol-2-yl)prop-2-enamide] as the compound, how does the viability at 48 h, 25 µM read?
**A.** 73.2%

**Q.** Which viability at 48 h, 25 µM does the source give for C=CC(=O)N1CCN(S(=O)(=O)Cc2ccon2)CC1 [1-J07, 1-{4-[(1,2-oxazol-3-yl)methanesulfonyl]piperazin-1-yl}prop-2-en-1-one] here?
**A.** 112%

**Q.** With CC(C)NC(=O)C(C#N)=Cc1ccc(-c2ccc([N+](=O)[O-])cc2)s1 [9-B16, 2-cyano-3-[5-(4-nitrophenyl)thiophen-2-yl]-N-(propan-2-yl)prop-2-enamide] as the compound, how does the viability at 48 h, 25 µM read?
**A.** 99.6%

**Q.** Which viability at 48 h, 25 µM does the source give for CC1CN(C(=O)C(C#N)=Cc2c(Cl)cccc2Cl)CC(C)O1 (stereo not shown) [8-O12, 3-(2,6-dichlorophenyl)-2-(2,6-dimethylmorpholine-4-carbonyl)prop-2-enenitrile] here?
**A.** 60.2%

**Q.** With C=CC(=O)N1CCC(c2nc3c(s2)CCC3)CC1 [3-I22, 1-(4-{4H,5H,6H-cyclopenta[d][1,3]thiazol-2-yl}piperidin-1-yl)prop-2-en-1-one] as the compound, how does the viability at 48 h, 25 µM read?
**A.** 91.2%

**Q.** For Cc1cc(C)cc(N(CCC#N)C(=O)CCl)c1 [5-P18, 2-chloro-N-(2-cyanoethyl)-N-(3,5-dimethylphenyl)acetamide], which viability at 48 h, 25 µM is on record?
**A.** 0.915%

**Q.** Which viability at 48 h, 25 µM does the source give for CC(Cl)C(=O)NC(c1cccs1)c1cccs1 (stereo not shown) [6-L21, N-[bis(thiophen-2-yl)methyl]-2-chloropropanamide] here?
**A.** 100%

**Q.** With O=C(CCl)Nc1ccc(S(=O)(=O)C(F)F)cc1 [4-N16, 2-chloro-N-(4-difluoromethanesulfonylphenyl)acetamide] as the compound, how does the viability at 48 h, 25 µM read?
**A.** 0.598%

**Q.** Which viability at 48 h, 25 µM does the source give for COc1cc(C=C(C#N)C(=O)NCc2ccccc2)cc2c1OCCO2 [9-I10, N-benzyl-2-cyano-3-(8-methoxy-2,3-dihydro-1,4-benzodioxin-6-yl)prop-2-enamide] here?
**A.** 118%

**Q.** For N#CC(=Cc1ccc2c(c1)OCCO2)C(=O)NC1CCCCC1 [9-J19, 2-cyano-N-cyclohexyl-3-(2,3-dihydro-1,4-benzodioxin-6-yl)prop-2-enamide], which viability at 48 h, 25 µM is on record?
**A.** 118%

**Q.** With C=CC(=O)N1CCC(C(=O)N2CCCC(CC(N)=O)CC2)CC1 (stereo not shown) [2-F12, 2-{1-[1-(prop-2-enoyl)piperidine-4-carbonyl]azepan-4-yl}acetamide] as the compound, how does the viability at 48 h, 25 µM read?
**A.** 65.1%

**Q.** With CC(Cl)C(=O)N1Cc2cnn(C)c2C1 (stereo not shown) [7-K09, 2-chloro-1-{1-methyl-1H,4H,5H,6H-pyrrolo[3,4-c]pyrazol-5-yl}propan-1-one] as the compound, how does the viability at 48 h, 25 µM read?
**A.** 87%

**Q.** Which viability at 48 h, 25 µM does the source give for N#CCCN(C(=O)CCl)c1ccccc1 [6-I12, 2-chloro-N-(2-cyanoethyl)-N-phenylacetamide] here?
**A.** 1.62%

**Q.** With O=C(CCl)Nc1ccnn1Cc1cccs1 [5-O13, 2-chloro-N-{1-[(thiophen-2-yl)methyl]-1H-pyrazol-5-yl}acetamide] as the compound, how does the viability at 48 h, 25 µM read?
**A.** 0.591%

**Q.** Which viability at 48 h, 25 µM does the source give for Cc1nc2cc(NC(=O)C(C#N)=Cc3ccco3)ccc2n1C [9-B18, 2-cyano-N-(1,2-dimethyl-1H-1,3-benzodiazol-5-yl)-3-(furan-2-yl)prop-2-enamide] here?
**A.** 106%

**Q.** Which viability at 48 h, 25 µM does the source give for C=CC(=O)N1CCCC(Cc2noc(C)n2)C1 (stereo not shown) [1-L20, 1-{3-[(5-methyl-1,2,4-oxadiazol-3-yl)methyl]piperidin-1-yl}prop-2-en-1-one] here?
**A.** 72.5%

**Q.** With C=CC(=O)NCc1ccc(-n2ccnc2)cc1 [1-M18, N-{[4-(1H-imidazol-1-yl)phenyl]methyl}prop-2-enamide] as the compound, how does the viability at 48 h, 25 µM read?
**A.** 90.9%

**Q.** Which viability at 48 h, 25 µM does the source give for Cn1c(=O)oc2cc(C(=O)CCl)ccc21 [10-F07, 6-(2-chloroacetyl)-3-methyl-2,3-dihydro-1,3-benzoxazol-2-one] here?
**A.** 110%

**Q.** For O=C(CCl)Nc1cc(-c2ccccc2)nn1-c1ccccc1 [4-A20, 2-chloro-N-(1,3-diphenyl-1H-pyrazol-5-yl)acetamide], which viability at 48 h, 25 µM is on record?
**A.** 0.296%

**Q.** Which viability at 48 h, 25 µM does the source give for CC(Cl)C(=O)N1CCN(Cc2nnnn2-c2ccccc2)CC1 (stereo not shown) [7-N05, 2-chloro-1-{4-[(1-phenyl-1H-1,2,3,4-tetrazol-5-yl)methyl]piperazin-1-yl}propan-1-one] here?
**A.** 97.8%

**Q.** Which viability at 48 h, 25 µM does the source give for O=C(CCl)Nc1ccccc1OC(F)F [4-N09, 2-chloro-N-[2-(difluoromethoxy)phenyl]acetamide] here?
**A.** 0.7%

**Q.** For Cc1nn(-c2ccccc2)c(C)c1C=C(C#N)C(=O)Nc1nccs1 [9-E07, 2-cyano-3-(3,5-dimethyl-1-phenyl-1H-pyrazol-4-yl)-N-(1,3-thiazol-2-yl)prop-2-enamide], which viability at 48 h, 25 µM is on record?
**A.** 119%

**Q.** With CC(Cl)C(=O)Nc1ccc(Cl)cc1Cl (stereo not shown) [4-L17, 2-chloro-N-(2,4-dichlorophenyl)propanamide] as the compound, how does the viability at 48 h, 25 µM read?
**A.** 81.6%

**Q.** For C=CC(=O)N1CCC(n2nc(C)nc2O)CC1 [3-P21, 1-[4-(5-hydroxy-3-methyl-1H-1,2,4-triazol-1-yl)piperidin-1-yl]prop-2-en-1-one], which viability at 48 h, 25 µM is on record?
**A.** 49.8%

**Q.** With Cc1ccc(-n2c(C)cc(C=C(C#N)C(=O)N3CCCCC3)c2C)cc1 [9-O21, 3-[2,5-dimethyl-1-(4-methylphenyl)-1H-pyrrol-3-yl]-2-(piperidine-1-carbonyl)prop-2-enenitrile] as the compound, how does the viability at 48 h, 25 µM read?
**A.** 87.8%

**Q.** Which viability at 48 h, 25 µM does the source give for O=C(CCl)Nc1ccc2oc3ccccc3c2c1 [6-N06, 2-chloro-N-{8-oxatricyclo[7.4.0.0,2,7]trideca-1(9),2(7),3,5,10,12-hexaen-4-yl}acetamide] here?
**A.** 2.09%

**Q.** Which viability at 48 h, 25 µM does the source give for N#CC(C(=O)Nc1ccc(Cl)cc1)=C(S)Nc1ccccc1 [8-H22, N-(4-chlorophenyl)-2-cyano-3-(phenylamino)-3-sulfanylprop-2-enamide] here?
**A.** 78.8%

**Q.** Which viability at 48 h, 25 µM does the source give for C=CC(=O)N(CC(C)(C)C)C1CCN(c2ccc(C#N)cn2)CC1 [1-N09, N-[1-(5-cyanopyridin-2-yl)piperidin-4-yl]-N-(2,2-dimethylpropyl)prop-2-enamide] here?
**A.** 105%

**Q.** For CC(Cl)C(=O)N1CCN(Cc2cnn(-c3ccccc3)c2)CC1 (stereo not shown) [7-F13, 2-chloro-1-{4-[(1-phenyl-1H-pyrazol-4-yl)methyl]piperazin-1-yl}propan-1-one], which viability at 48 h, 25 µM is on record?
**A.** 93%

**Q.** For CN(C)C(=O)C(CNC(=O)CCl)c1ccccc1 (stereo not shown) [7-J12, 3-(2-chloroacetamido)-N,N-dimethyl-2-phenylpropanamide], which viability at 48 h, 25 µM is on record?
**A.** 1.26%

**Q.** Which viability at 48 h, 25 µM does the source give for C=CC(=O)NC(C)c1cc2cnccc2o1 (stereo not shown) [1-B08, N-(1-{furo[3,2-c]pyridin-2-yl}ethyl)prop-2-enamide] here?
**A.** 80.6%

**Q.** With Cc1ccc(C=C(C#N)C(=O)Nc2ccccc2Cl)s1 [9-C22, N-(2-chlorophenyl)-2-cyano-3-(5-methylthiophen-2-yl)prop-2-enamide] as the compound, how does the viability at 48 h, 25 µM read?
**A.** 107%

**Q.** With Cc1cc(C(=O)CCl)c(C)n1CCC(C)C [10-L03, 2-chloro-1-[2,5-dimethyl-1-(3-methylbutyl)-1H-pyrrol-3-yl]ethan-1-one] as the compound, how does the viability at 48 h, 25 µM read?
**A.** 76.2%

**Q.** With CC(Cl)C(=O)N(Cc1ccco1)C1CCN(C)CC1 (stereo not shown) [7-L17, 2-chloro-N-[(furan-2-yl)methyl]-N-(1-methylpiperidin-4-yl)propanamide] as the compound, how does the viability at 48 h, 25 µM read?
**A.** 101%

**Q.** With CN(CC(=O)NCc1ccco1)C(=O)CCl [4-A18, 2-chloro-N-({[(furan-2-yl)methyl]carbamoyl}methyl)-N-methylacetamide] as the compound, how does the viability at 48 h, 25 µM read?
**A.** 0.0249%

**Q.** Which viability at 48 h, 25 µM does the source give for Cc1ccccc1N1C(=O)C=CC1=O [10-J13, 1-(2-methylphenyl)-2,5-dihydro-1H-pyrrole-2,5-dione] here?
**A.** 109%

**Q.** With N#CC(=Cc1cccc(F)c1)C(=O)Nc1ccc(SC(F)F)cc1 [9-N17, 2-cyano-N-{4-[(difluoromethyl)sulfanyl]phenyl}-3-(3-fluorophenyl)prop-2-enamide] as the compound, how does the viability at 48 h, 25 µM read?
**A.** 103%

**Q.** With C=CC(=O)N1CCC(C(=O)Nc2n[nH]c3cc(C#N)c(C)cc23)CC1 [3-J18, N-(6-cyano-5-methyl-1H-indazol-3-yl)-1-(prop-2-enoyl)piperidine-4-carboxamide] as the compound, how does the viability at 48 h, 25 µM read?
**A.** 90.3%

**Q.** For C=CC(=O)NC1CC2CCC(C1)S2 (stereo not shown) [1-B06, N-{8-thiabicyclo[3.2.1]octan-3-yl}prop-2-enamide], which viability at 48 h, 25 µM is on record?
**A.** 84.7%

**Q.** For N#CC(=Cc1cccc(Cl)c1Cl)C(=O)NCCc1ccccc1 [8-J06, 2-cyano-3-(2,3-dichlorophenyl)-N-(2-phenylethyl)prop-2-enamide], which viability at 48 h, 25 µM is on record?
**A.** 10.1%

**Q.** With C=CC(=O)N1Cc2ccccc2C[C@@H]1C(=O)NC1CC1 [2-G06, (3R)-N-cyclopropyl-2-(prop-2-enoyl)-1,2,3,4-tetrahydroisoquinoline-3-carboxamide] as the compound, how does the viability at 48 h, 25 µM read?
**A.** 101%

**Q.** With CC1CN(S(=O)(=O)c2ccc(NC(=O)CCl)cc2)CC(C)O1 (stereo not shown) [5-O15, 2-chloro-N-{4-[(2,6-dimethylmorpholin-4-yl)sulfonyl]phenyl}acetamide] as the compound, how does the viability at 48 h, 25 µM read?
**A.** 1.43%

**Q.** With CC(Cl)C(=O)N1CCN(C2=NS(=O)(=O)c3ccccc32)CC1 (stereo not shown) [7-K11, 3-[4-(2-chloropropanoyl)piperazin-1-yl]-1lambda6,2-benzothiazole-1,1-dione] as the compound, how does the viability at 48 h, 25 µM read?
**A.** 94.9%

**Q.** With C=CC(=O)N1CCC(C(=O)N2CCCN(c3nccs3)CC2)CC1 [2-L20, 1-{4-[4-(1,3-thiazol-2-yl)-1,4-diazepane-1-carbonyl]piperidin-1-yl}prop-2-en-1-one] as the compound, how does the viability at 48 h, 25 µM read?
**A.** 90.1%

**Q.** With CC1CN(C(=O)C(C#N)=Cc2ccc(OC(F)F)cc2)CC(C)O1 (stereo not shown) [8-G05, 3-[4-(difluoromethoxy)phenyl]-2-(2,6-dimethylmorpholine-4-carbonyl)prop-2-enenitrile] as the compound, how does the viability at 48 h, 25 µM read?
**A.** 97.8%
